The supplement of paper PMC8671470

Assays:
Conditions in all cases: 72 h
BV-173 [1] = test system: BV-173
Method in brief: (§1)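 Fifteen myeloid leukaemia lines in RPMI 1640 were treated for 72 h at 37 °C and 5% CO2 with five tenfold doses from 1 to 10,000 nM, in duplicate. ATP luminescence was normalised to vehicle and to a positive control at 10 µM, then fitted with a four-parameter log-logistic model. The IC50 came from these fits.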

HEL [2] = test system: HEL
Method in brief: as §1

HL-60 [3] = test system: HL-60
Method in brief: as §1

K-562 [4] = test system: K-562
Method in brief: as §1

KCL-22 [5] = test system: KCL-22
Method in brief: as §1

KG-1 [6] = test system: KG-1
Method in brief: as §1

KU-812 = test system: KU-812
Method in brief: as §1

LAMA-84 [7] = test system: LAMA-84
Method in brief: as §1

ML-2 [8] = test system: ML-2
Method in brief: as §1

MOLM-13 = test system: MOLM-13
Method in brief: as §1

MV4-11 [9] = test system: MV4-11
Method in brief: as §1

Mono-Mac-6 [10] = test system: Mono-Mac-6
Method in brief: as §1

NOMO-1 = test system: NOMO-1
Method in brief: as §1

SHI-1 [11] = test system: SHI-1
Method in brief: as §1

THP-1 = test system: THP-1
Method in brief: as §1

HL-60 [12] = assay: cell viability (% survival relative to DMSO control); higher = less cytotoxic
Method in brief: (§2)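 For each screen, HL-60 cells in RPMI 1640 with 10% FBS carried either DMSO or 100 nM of one of three metabolic inhibitors while the full library was applied at five tenfold concentrations, 1–10,000 nM, in duplicate. Plates were 384-well and were kept 72 h at 37 °C, 5% CO2. Viability, measured by CellTiter-Glo, was normalised to wells with DMSO and with 10 μM proteasome inhibitor. Where area under the curve appears, it was fitted by four-parameter log-logistic models in drc and PharmacoGx.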

BV-173 [13] = assay: cell viability (% survival relative to DMSO control, bortezomib = 0%); higher = less cytotoxic
Method in brief: (§3)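 Fifteen myeloid leukaemia cell lines were exposed to compounds at 1, 10, 100, 1000 or 10000 nM in 384-well plates for 72 h at 37 °C and 5% CO2. Viability was read by CellTiter-Glo luminescence and normalised, with vehicle as 100% and a 10 µM positive control as 0%. Values are percent survival averaged over duplicates.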

HEL [14] = assay: as above
Method in brief: as §3

HL-60 [15] = assay: as above
Method in brief: as §3

K-562 [16] = assay: as above
Method in brief: as §3

KCL-22 [17] = assay: as above
Method in brief: as §3

KG-1 [18] = assay: as above
Method in brief: as §3

LAMA-84 [19] = assay: as above
Method in brief: as §3

ML-2 [20] = assay: as above
Method in brief: as §3

MV4-11 [21] = assay: as above
Method in brief: as §3

Mono-Mac-6 [22] = assay: as above
Method in brief: as §3

SHI-1 [23] = assay: as above
Method in brief: as §3

HL-60 [24] = assay: area under dose-response curve (viability, 1 nM-10 uM) (fraction (0-1)); higher = more sensitive
Method in brief: as §2

NCc1ccc(S(N)(=O)=O)cc1 [4-Homosulfanilamide]
Conditions	IC50 (cell viability) [µM]
BV-173 [1]	> 10
HEL [2]	> 10
HL-60 [3]	> 10
K-562 [4]	> 10
KCL-22 [5]	> 10
KG-1 [6]	> 10
KU-812	> 10
LAMA-84 [7]	> 10
ML-2 [8]	> 10
MOLM-13	> 10
MV4-11 [9]	> 10
Mono-Mac-6 [10]	> 10
NOMO-1	> 10
SHI-1 [11]	> 10
THP-1	> 10

cell viability [%], HL-60 [12]
Conditions	0.001 µM	0.01 µM	0.1 µM	1 µM	10 µM
co-treatment: AZD3965 100 nM	102	106	99.06	95.9	99.2
co-treatment: DMSO vehicle	103.6	105	100	101	96.4
co-treatment: GSK2194069 100 nM	101	103	98.5	96.9	97.5
co-treatment: pictilisib 100 nM	98.6	107	97.5	95.5	98.3

Conditions	area under dose-response curve, co-treatment: AZD3965 100 nM	area under dose-response curve, co-treatment: DMSO vehicle	area under dose-response curve, co-treatment: GSK2194069 100 nM	area under dose-response curve, co-treatment: pictilisib 100 nM	cell viability, 1 nM [%]	cell viability, 10 nM [%]	cell viability, 100 nM [%]	cell viability, 1000 nM [%]	cell viability, 10000 nM [%]
BV-173 [13]	–	–	–	–	96.7	85.9	91.7	96.6	97.6
HEL [14]	–	–	–	–	94.2	71.2	99.3	98	106
HL-60 [15]	–	–	–	–	88.1	97	109	82.1	110
HL-60 [24]	< 0.0301	< 0.0301	< 0.0301	< 0.0301	–	–	–	–	–
K-562 [16]	–	–	–	–	85.1	90	87.5	104	102
KCL-22 [17]	–	–	–	–	99.7	107	103	103	106
KG-1 [18]	–	–	–	–	91.4	96	97.7	99.1	96.6
LAMA-84 [19]	–	–	–	–	99.5	97.7	94.7	99.3	100
ML-2 [20]	–	–	–	–	90.9	92.3	94.7	91.8	102
MV4-11 [21]	–	–	–	–	93.9	87.5	90.2	89.9	106
Mono-Mac-6 [22]	–	–	–	–	107	101	106	96	92.3
SHI-1 [23]	–	–	–	–	96.8	107	104	102	111

Oc1ncc(F)c(O)n1 [5-fluorouracil]
Conditions	IC50 (cell viability) [µM]
BV-173 [1]	3.48
HEL [2]	2.3
HL-60 [3]	1.07
K-562 [4]	> 10
KCL-22 [5]	2.68
KG-1 [6]	4.31
KU-812	> 10
LAMA-84 [7]	6.31
ML-2 [8]	2.3
MOLM-13	0.353
MV4-11 [9]	0.435
Mono-Mac-6 [10]	0.711
NOMO-1	9.6
SHI-1 [11]	2.69
THP-1	> 10

cell viability [%], HL-60 [12]
Conditions	0.001 µM	0.01 µM	0.1 µM	1 µM	10 µM
co-treatment: AZD3965 100 nM	97.8	98.3	102	102.9	55
co-treatment: DMSO vehicle	101.99	97.89	98.8	102	76.1
co-treatment: GSK2194069 100 nM	99.6	104	99	100	75.9
co-treatment: pictilisib 100 nM	102	75.9	113	96.5	68.7

Conditions	area under dose-response curve, co-treatment: AZD3965 100 nM	area under dose-response curve, co-treatment: DMSO vehicle	area under dose-response curve, co-treatment: GSK2194069 100 nM	area under dose-response curve, co-treatment: pictilisib 100 nM	cell viability, 1 nM [%]	cell viability, 10 nM [%]	cell viability, 100 nM [%]	cell viability, 1000 nM [%]	cell viability, 10000 nM [%]
BV-173 [13]	–	–	–	–	99	110	85.6	86.4	16.3
HEL [14]	–	–	–	–	95.1	104	84.2	73.8	31.8
HL-60 [15]	–	–	–	–	113	120	138	61.2	27.1
HL-60 [24]	< 0.0301	< 0.0301	< 0.0301	< 0.0301	–	–	–	–	–
K-562 [16]	–	–	–	–	101	114	91.5	108	68.9
KCL-22 [17]	–	–	–	–	98.9	120	98.3	84.3	30.6
KG-1 [18]	–	–	–	–	101	114	85.8	83.5	46.2
LAMA-84 [19]	–	–	–	–	91.1	98.5	99.8	86.9	48.8
ML-2 [20]	–	–	–	–	93	99.4	102	78.9	29.5
MV4-11 [21]	–	–	–	–	96	111	85	26.3	1.31
Mono-Mac-6 [22]	–	–	–	–	95.4	95.5	88.4	47.9	19.3
SHI-1 [23]	–	–	–	–	91.6	110	102	70.9	44.6
